Data set [1] addresses T1, human Nav1.2 voltage-gated sodium channels (Homo sapiens, UniProt Q99250).
T1 construct: expressed in transfected cells; host or cells: HEK293
As to the kind of experiment: Manual whole-cell patch-clamp, inhibition of hNav1.2 sodium current. Format: cell-based. To be noted: HEK293 cells stably transfected with SCN2A, holding potential -80 mV, peak current. The protocol: (§1) The potential inhibitory effect of Compound I-XXII on human voltage-gated sodium channels (hNav1.2/1.7) was evaluated by manual patch-clamp system according to the procedures as described. HEK293 cell line stably transfected with SCN2A/SCN9A gene was employed in this study and Tetrodotoxin (TTX) was used as a positive control to ensure the good quality of the assay.
(§2) General procedure: HEK 293 cells were stably transfected with human Nav1.2 or Nav1.7 voltage-gated sodium channels. The cells are routinely maintained in culture medium containing in 90% DMEM, 10% FBS, 100 U/mL Penicillin-Streptomycin and […] of G418. Before the assay, the cells were resuspended and plated onto the coverslips at 5×10^5 cells/per 6 cm cell culture dish for use. The voltage-gated Nav1.2 and Nav1.7 channel current was recorded at room temperature (25° C.) from randomly selected transfected cells under whole-cell patch clamp systems equipped with EPC10 USB (HEKA) or Multiclamp 700B amplifier (Molecular Devices), while electrical data was digitalized by Digidata1440A with sampling frequency over 10 kHz and acquired with Patchmaster or pClamp10 respectively. The glass electrode with resistance ranged from 2 to 3.5 MW was prepared by micropipette puller P-97 (Sutter Instrument) and filled with internal solutions (in mM): 140 KCl, 2 MgCl2, 10 EGTA, 10 HEPES and 5 MgATP (pH adjusted to 7.35 with KOH), while cells were bathed in extracellular solutions (in mM) 132 NaCl, 4 KCl, 3 CaCl2, 0.5 MgCl2, 11.1 glucose, and 10 HEPES (pH adjusted to 7.35 with NaOH). After rupture, the series membrane resistance was at least 50% compensated and capacitance was also compensated as well. All cells were voltage-clamped to a holding potential of −80 mV unless otherwise specified. The inward sodium currents were elicited by a 20-ms voltage pulse to 10 mV from −80 mV applied every 15 s. The sodium current was initially recorded for at least 120 seconds to assess the current stability, and only cells with recording parameters over acceptance criteria was finally used to assess the dose response to the local perfusion of Compound I-XXII. The blank vehicle was firstly applied to the patched cells in order to establish the recording baseline. After at least 5 min when the elicited sodium currents reaches stabilization, the test compound was perfused into recording chamber accumulatively from low to high concentrations. The positive control article, Tetrodotoxin (TTX), was also used to challenge same batch of cell in order to ensure the good performance of the recording system. All experiments were performed in triplicate for IC50 determination. Upon data acquisition, the PatchMaster or pClamfit software were used to extract the peak current from the original raw data, while the peak current inhibition was defined by equation as shown below.
(§3) The dose response curve for the test compound was plotted with % inhibition against the dose concentration of the test compound using Graphpad Prism 5.0 software, and then the data was fit to a sigmoid dose-response curve with variable slope for IC50 determination.

Data set [2] relates to SNL (Spinal Nerve Ligation) rats. As to the kind of experiment: Mechanical allodynia in SNL (spinal nerve ligation) rats, von Frey. Format: in vivo, Sprague-Dawley rats. As to conditions: 5 mg/kg i.p., 0.5 h time point post dose. As to the method:
SNL model is a commonly used model to measure surgical induced neuropathic pain. The goal of the study was to evaluate the efficacy of Compound I to attenuate mechanical allodynia in SNL model in Sprague-Dawley rats.
In this study, SNL model was created following typical procedure and the approved drug Tapentadol (XW-TAP) was used as reference compound. Gabapentin was applied as positive control for model validation.
1) 5 mg/kg Compound I: Added 17.13 mg Compound I to 16.96 mL 0.5% methylcellulose in normal saline solution, vortexed to fully mix.
1) Rats were placed individually in a plastic enclosure with a mesh bottom which allowed full access to the paws. Rats were acclimated for 15 min prior to testing.
2) After acclimation, the mid-plantar hind paw was touched with one of a series of eight von Frey hairs with logarithmically incremental stiffness as follows: 3.61 (0.4 g), 3.84 (0.6 g), 4.08 (1 g), 4.31 (2 g), 4.56 (4 g), 4.74 (6 g), 4.93 (8 g) and 5.18 (15 g). The von Frey hairs were presented perpendicularly to the plantar surface with sufficient force to cause slight buckling against the paw and held for approximately 6-8 s. Stimulation was presented at intervals of 5 seconds, allowing for apparent resolution of any behavioral responses to previous stimulus. A positive response was noted if the paw was sharply withdrawn. […]

Data set [3] is described as follows: Rat pharmacokinetic study. As to conditions: male, Sprague-Dawley, plasma, PO, single dose 5.8 mg/kg. Format: in vivo, male Sprague-Dawley rats. The protocol: For rat pharmacokinetic studies, male Sprague-Dawley rats were housed individually and fasted overnight before use. The animal dosing experiments were carried out in accordance to the National Institutes of Health Guide to the Care and Use of Laboratory Animals and the Animal Welfare Act. For Compound I, a single dose of 5.8 mg/kg was administered to each rat in two groups (n=5/group) via intravenous (IV) and oral (PO) administration, respectively. The vehicle used for IV administration was 10% (v/v) CremophorEL in 90% PBS. The vehicle used for PO administration was 0.5% (w/v) methylcellulose in normal saline solution. Blood samples were collected at specified time-points (pre-dose, 30 minutes, 1 hour, 2 hours, 4 hours, 7 hours, 8 hours, 12 hours, 24 hours) following administration to individual rats within IV and PO group. Blood samples were clotted on ice immediately, plasma samples were then isolated by centrifugation and stored frozen (−80° C.) until further analysis. The concentrations of Compound I were individually determined by LC/MS/MS assay. Various pharmacokinetic parameters were calculated using Phoenix™ WinNonlin® software. To quantify the bioconversion efficiency of the Compound I in the circulation system, the bioavailability of Compound I after PO administration was calculated.

In data set [4] the target is T2, human Nav1.7 voltage-gated sodium channels (Homo sapiens, UniProt Q15858).
T2 construct: expressed in transfected cells; host or cells: HEK293
T2 sequence (Q15858 whole entry): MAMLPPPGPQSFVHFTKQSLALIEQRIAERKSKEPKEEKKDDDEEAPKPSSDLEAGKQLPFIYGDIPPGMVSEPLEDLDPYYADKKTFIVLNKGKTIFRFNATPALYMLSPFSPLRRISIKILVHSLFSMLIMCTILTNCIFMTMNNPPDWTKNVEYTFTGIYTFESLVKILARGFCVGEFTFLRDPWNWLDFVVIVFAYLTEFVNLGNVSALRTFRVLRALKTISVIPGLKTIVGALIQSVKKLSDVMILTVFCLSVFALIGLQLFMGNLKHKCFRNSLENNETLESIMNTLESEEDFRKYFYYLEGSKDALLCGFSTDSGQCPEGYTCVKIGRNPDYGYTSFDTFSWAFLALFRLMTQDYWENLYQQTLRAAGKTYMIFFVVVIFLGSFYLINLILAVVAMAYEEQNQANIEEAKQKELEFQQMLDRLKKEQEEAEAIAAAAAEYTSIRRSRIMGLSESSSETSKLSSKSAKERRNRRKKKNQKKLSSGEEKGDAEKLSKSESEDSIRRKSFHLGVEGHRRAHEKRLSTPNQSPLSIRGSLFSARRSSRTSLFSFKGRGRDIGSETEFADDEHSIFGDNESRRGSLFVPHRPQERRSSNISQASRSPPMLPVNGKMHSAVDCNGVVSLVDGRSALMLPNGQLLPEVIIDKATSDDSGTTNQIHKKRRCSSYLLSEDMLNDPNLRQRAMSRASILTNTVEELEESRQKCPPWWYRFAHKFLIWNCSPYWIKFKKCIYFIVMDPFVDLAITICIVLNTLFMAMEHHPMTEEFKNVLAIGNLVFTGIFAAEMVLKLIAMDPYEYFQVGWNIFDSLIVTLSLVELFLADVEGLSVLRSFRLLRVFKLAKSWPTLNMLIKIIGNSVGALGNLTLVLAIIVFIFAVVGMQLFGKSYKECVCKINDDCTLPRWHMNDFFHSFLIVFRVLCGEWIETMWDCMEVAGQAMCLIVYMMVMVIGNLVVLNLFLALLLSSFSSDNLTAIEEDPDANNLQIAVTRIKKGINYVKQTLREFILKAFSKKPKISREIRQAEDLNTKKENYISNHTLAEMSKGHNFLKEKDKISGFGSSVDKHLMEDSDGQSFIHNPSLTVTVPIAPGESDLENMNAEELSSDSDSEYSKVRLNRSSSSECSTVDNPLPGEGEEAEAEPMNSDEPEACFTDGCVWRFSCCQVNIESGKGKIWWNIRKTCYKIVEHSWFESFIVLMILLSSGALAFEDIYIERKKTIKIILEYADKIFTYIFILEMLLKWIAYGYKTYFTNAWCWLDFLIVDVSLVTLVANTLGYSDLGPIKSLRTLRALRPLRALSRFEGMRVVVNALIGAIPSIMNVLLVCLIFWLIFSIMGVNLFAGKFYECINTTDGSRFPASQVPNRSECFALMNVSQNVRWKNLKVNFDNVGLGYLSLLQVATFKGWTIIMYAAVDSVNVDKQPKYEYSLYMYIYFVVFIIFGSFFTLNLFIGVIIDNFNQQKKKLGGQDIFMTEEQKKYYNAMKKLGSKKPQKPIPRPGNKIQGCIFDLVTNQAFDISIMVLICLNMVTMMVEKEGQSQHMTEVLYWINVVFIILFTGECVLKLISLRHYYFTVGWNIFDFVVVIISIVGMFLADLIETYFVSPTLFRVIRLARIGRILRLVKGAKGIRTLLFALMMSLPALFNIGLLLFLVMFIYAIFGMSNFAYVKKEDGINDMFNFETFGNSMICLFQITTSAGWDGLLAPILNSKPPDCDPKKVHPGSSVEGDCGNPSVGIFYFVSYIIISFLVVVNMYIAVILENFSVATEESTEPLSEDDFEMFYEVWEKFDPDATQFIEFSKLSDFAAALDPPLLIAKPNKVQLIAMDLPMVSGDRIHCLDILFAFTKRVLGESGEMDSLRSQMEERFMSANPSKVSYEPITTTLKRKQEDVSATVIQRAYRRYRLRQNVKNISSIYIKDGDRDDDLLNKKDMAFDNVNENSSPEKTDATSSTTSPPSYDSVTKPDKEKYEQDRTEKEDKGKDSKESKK
As to the kind of experiment: Manual whole-cell patch-clamp, inhibition of hNav1.7 sodium current. Format: cell-based. As to conditions: HEK293 cells stably transfected with SCN9A, holding potential -80 mV, peak current. As to the method: as §1, §2, §3

The test system of a further data set is metastatic melanoma. To be noted: Phase 2, patients with metastatic melanoma; cited from earlier work.

T1 sequence (Q99250 whole entry): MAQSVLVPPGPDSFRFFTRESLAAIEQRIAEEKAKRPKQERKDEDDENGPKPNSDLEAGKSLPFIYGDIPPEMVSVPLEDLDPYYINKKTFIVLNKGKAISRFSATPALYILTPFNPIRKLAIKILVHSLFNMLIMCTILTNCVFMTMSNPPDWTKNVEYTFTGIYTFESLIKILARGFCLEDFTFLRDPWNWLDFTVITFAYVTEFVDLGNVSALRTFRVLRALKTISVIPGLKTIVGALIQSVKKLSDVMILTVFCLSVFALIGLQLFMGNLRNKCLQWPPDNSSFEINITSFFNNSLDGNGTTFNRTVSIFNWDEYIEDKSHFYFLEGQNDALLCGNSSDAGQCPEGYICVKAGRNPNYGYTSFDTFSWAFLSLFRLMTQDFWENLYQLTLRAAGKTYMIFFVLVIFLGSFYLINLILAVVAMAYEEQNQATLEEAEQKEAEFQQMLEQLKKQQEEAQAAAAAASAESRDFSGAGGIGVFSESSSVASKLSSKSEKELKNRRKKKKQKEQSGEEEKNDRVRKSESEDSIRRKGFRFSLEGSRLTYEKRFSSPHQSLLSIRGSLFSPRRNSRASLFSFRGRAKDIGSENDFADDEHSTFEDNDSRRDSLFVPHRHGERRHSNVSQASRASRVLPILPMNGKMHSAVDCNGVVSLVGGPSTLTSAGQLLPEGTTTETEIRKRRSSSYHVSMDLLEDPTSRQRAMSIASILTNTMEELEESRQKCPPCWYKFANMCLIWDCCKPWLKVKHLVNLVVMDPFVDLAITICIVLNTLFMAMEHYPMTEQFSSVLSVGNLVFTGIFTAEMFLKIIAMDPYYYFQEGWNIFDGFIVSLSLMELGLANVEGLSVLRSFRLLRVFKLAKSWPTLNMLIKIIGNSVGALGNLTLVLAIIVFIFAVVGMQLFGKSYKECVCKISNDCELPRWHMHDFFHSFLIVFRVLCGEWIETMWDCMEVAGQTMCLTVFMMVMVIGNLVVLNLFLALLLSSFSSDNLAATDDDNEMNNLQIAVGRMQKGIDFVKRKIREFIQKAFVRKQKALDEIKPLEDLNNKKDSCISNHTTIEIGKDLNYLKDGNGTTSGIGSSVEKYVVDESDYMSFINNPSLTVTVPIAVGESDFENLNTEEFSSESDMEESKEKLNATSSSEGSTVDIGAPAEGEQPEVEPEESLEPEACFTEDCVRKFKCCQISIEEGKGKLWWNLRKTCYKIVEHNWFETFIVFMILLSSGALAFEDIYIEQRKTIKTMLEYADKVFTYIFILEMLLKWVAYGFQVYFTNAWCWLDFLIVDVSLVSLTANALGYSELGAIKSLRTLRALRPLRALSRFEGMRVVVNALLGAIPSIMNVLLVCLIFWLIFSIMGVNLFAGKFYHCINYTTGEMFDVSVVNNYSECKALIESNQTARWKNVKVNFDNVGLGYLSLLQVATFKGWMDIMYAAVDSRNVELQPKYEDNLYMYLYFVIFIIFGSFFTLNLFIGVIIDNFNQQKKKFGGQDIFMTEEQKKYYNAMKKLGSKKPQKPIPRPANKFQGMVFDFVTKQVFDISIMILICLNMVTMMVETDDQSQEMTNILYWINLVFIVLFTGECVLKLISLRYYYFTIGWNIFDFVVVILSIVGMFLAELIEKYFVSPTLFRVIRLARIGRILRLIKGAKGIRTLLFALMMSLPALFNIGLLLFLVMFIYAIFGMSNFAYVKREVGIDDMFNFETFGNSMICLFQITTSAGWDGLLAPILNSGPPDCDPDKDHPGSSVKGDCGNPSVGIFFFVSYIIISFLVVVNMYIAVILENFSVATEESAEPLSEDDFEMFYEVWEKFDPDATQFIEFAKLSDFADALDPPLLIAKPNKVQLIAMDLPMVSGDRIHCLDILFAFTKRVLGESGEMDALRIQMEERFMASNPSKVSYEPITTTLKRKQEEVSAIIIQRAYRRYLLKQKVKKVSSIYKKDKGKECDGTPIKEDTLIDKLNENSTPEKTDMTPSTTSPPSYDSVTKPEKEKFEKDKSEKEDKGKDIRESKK

The compound `Nc1nc2ccc(S(F)(F)(F)(F)F)cc2s1` [Compound I, 6-(Pentafluorosulfanyl)benzo[d]thiazol-2-amine] displayed an IC50 in data set [1] of 4670 nM. The “anti-allodynic effect on SNL-induced mechanical allodynia” value in data set [2] is “reversed SNL-induced mechanical allodynia”. In data set [3], the AUC(0-t) was determined as 7690 ng·h/mL, the concentration peaked (Cmax) at 942 ng/mL, the Tmax came to 2.3 h and the half-life is 7.11 h. Further, in data set [4], the IC50 stood at 682 nM.
On to `Nc1nc2ccc(SC(F)(F)F)cc2[se]1` [Compound IX, 6-((Trifluoromethyl)thio)benzo[d][1,3]selenazol-2-amine], for which the IC50 in data set [1] turned out to be 15300 nM; in data set [4], 1170 nM.
The like results for `Nc1nc2ccc(S(F)(F)(F)(F)F)cc2[se]1` [Compound V, 6-(Pentafluorosulfanyl)benzo[d][1,3]selenazol-2-amine] were, in that order, 4370 nM and 722 nM.
Consider `Nc1nc2ccc(OC(F)(F)F)cc2[se]1` [Compound VII, 6-(Trifluoromethoxy)benzo[d][1,3]selenazol-2-amine], for which the values for the IC50 in data set [1] and in data set [4] were 18000 nM and 1360 nM, respectively.
Regarding `Nc1nc2ccc(OC(F)(F)F)cc2s1` [Riluzole], the RECIST grade entry in the data set with metastatic melanoma was “no overall improvement of RECIST grade”.
As for `Nc1nc2ccc(C(F)(F)F)cc2[se]1` [Compound VI, 6-(Trifluoromethyl)benzo[d][1,3]selenazol-2-amine], the IC50 worked out at 10100 nM in data set [1] and 745 nM in data set [4].

These data come from patent publication US11639337B2, “Bicyclic heteroaryl derivatives and preparation and uses thereof” (XWPHARMA LTD., priority 2017, dated 2023).
